Laboratory results taken from article PMC8400920, “Metabolism of Diterpenoids Derived from the Bark of Cinnamomum cassia in Human Liver Microsomes” (Pharmaceutics, 2021).
Entries after “also recorded” stand apart in the source; their conditions may differ.

What was measured:
Experiment in all cases: AHC metabolism by recombinant cDNA-expressed CYP isoform
Type in all cases: in vitro ADME
CYP1A1 = molecular target: T1, CYP1A1 (Homo sapiens, UniProt P04798); conditions: 10 µM AHC, 10 pmol recombinant CYP, NGS, 37 °C, 60 min
T1 construct: purchased Corning Gentest
T1 sequence (P04798 1-512): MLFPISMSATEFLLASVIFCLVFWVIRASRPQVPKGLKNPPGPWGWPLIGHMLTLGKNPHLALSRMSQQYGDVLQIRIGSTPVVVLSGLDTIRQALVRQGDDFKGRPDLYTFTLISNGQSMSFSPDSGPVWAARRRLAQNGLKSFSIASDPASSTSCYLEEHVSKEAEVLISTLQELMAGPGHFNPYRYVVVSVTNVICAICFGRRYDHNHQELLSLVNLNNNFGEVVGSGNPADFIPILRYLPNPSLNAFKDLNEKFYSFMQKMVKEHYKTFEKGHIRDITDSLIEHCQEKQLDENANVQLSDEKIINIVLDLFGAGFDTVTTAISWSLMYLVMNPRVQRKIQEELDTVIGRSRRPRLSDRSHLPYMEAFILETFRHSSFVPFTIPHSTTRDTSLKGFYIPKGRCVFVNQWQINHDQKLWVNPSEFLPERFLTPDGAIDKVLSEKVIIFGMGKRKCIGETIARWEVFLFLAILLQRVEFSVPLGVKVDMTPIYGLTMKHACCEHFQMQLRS
Experimental: (§1) To identify the metabolic enzymes for AHC, 10 µM AHC was incubated with 10 pmol of human recombinant cDNA-expressed CYP isoforms (CYP1A1, 1A2, 2A6, 2B6, 2C8, 2C9, 2C19, 2D6, 2E1, 3A4, and 3A5) in the presence of 0.1 M potassium phosphate buffer (pH 7.4). The reaction was initiated by adding 100 µL of NGS at 37 °C for 60 min. Then, the mixture was suspended by adding 400 µL of ice-cold 100% ACN. Following centrifugation at 15,700× g for 10 min at 4 °C, the supernatant was transferred to a new tube and evaporated using a speed-vacuum concentrator. Next, the dried sample was diluted with 100 µL of 20% MeOH containing 0.1% formic acid, and a 5 µL aliquot was injected into a C18 column for LC–MS/MS analysis.
(§2) To identify the CYP isoforms involved in AHC metabolism, AHC (10 µM) was incubated with eleven cDNA-expressed recombinant CYP isoforms (CYP1A1, CYP1A2, CYP2A6, CYP2B6, CYP2C8, CYP2C9, CYP2C19, CYP2D6, CYP2E1, CYP3A4, and CYP3A5) in the presence of the NGS. […] However, the metabolites of AHC were not observed from reactions with other CYPs. Thus, in the metabolism of AHC in HLMs, CYP3A4 was involved as the main enzyme, and four types of metabolites were generated.

CYP2A6 = molecular target: T2, CYP2A6 (Homo sapiens, UniProt P11509); conditions: 10 µM AHC, 10 pmol recombinant CYP, NGS, 37 °C, 60 min
T2 construct: purchased Corning Gentest
T2 sequence (P11509 1-494): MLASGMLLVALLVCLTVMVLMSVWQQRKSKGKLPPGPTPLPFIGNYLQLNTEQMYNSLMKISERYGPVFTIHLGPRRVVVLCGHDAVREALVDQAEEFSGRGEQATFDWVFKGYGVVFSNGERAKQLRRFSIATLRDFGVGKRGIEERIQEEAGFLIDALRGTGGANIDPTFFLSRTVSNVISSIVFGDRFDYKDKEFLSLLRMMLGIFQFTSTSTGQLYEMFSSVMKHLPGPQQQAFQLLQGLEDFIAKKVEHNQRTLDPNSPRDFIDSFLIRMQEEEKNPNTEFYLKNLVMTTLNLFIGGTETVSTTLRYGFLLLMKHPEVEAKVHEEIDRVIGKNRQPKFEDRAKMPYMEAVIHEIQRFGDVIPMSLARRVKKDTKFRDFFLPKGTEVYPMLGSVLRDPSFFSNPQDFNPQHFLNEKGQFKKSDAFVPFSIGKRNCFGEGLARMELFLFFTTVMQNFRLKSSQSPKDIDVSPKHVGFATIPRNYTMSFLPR
Experimental: as §1, §2

CYP2C19 = molecular target: T3, CYP2C19 (Homo sapiens, UniProt P33261); conditions: 10 µM AHC, 10 pmol recombinant CYP, NGS, 37 °C, 60 min
T3 construct: purchased Corning Gentest
Experimental: as §1, §2

CYP2C8 = molecular target: T4, CYP2C8 (Homo sapiens, UniProt P10632); conditions: 10 µM AHC, 10 pmol recombinant CYP, NGS, 37 °C, 60 min
T4 construct: purchased Corning Gentest
T4 sequence (P10632 1-490): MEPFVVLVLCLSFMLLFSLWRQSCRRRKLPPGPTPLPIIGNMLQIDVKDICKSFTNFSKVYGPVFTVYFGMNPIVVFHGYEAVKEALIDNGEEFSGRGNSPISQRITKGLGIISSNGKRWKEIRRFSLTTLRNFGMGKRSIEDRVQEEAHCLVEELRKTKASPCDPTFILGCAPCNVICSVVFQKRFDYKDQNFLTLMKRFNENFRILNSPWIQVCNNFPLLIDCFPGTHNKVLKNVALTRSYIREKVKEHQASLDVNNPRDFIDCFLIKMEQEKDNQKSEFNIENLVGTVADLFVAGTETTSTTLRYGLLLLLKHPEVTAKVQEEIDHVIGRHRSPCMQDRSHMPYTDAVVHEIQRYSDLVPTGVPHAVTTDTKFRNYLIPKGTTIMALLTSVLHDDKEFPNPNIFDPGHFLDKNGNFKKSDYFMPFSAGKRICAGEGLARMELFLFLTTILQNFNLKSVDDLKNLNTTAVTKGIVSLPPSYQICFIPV
Experimental: as §1, §2

CYP2C9 = molecular target: T5, CYP2C9 (Homo sapiens, UniProt P11712); conditions: 10 µM AHC, 10 pmol recombinant CYP, NGS, 37 °C, 60 min
T5 construct: purchased Corning Gentest
Experimental: as §1, §2

CYP2D6 = molecular target: T6, CYP2D6 (Homo sapiens, UniProt P10635); conditions: 10 µM AHC, 10 pmol recombinant CYP, NGS, 37 °C, 60 min
T6 construct: purchased Corning Gentest
Experimental: as §1, §2

CYP2E1 = molecular target: T7, CYP2E1 (Homo sapiens, UniProt P05181); conditions: 10 µM AHC, 10 pmol recombinant CYP, NGS, 37 °C, 60 min
T7 construct: purchased Corning Gentest
Experimental: as §1, §2

CYP3A4 = molecular target: T8, CYP3A4 (Homo sapiens, UniProt P08684); conditions: 10 µM AHC, 10 pmol recombinant CYP3A4, NGS, 37 °C, 60 min
T8 construct: purchased Corning Gentest
Experimental: as §1, §2

T8 sequence (P08684 whole entry): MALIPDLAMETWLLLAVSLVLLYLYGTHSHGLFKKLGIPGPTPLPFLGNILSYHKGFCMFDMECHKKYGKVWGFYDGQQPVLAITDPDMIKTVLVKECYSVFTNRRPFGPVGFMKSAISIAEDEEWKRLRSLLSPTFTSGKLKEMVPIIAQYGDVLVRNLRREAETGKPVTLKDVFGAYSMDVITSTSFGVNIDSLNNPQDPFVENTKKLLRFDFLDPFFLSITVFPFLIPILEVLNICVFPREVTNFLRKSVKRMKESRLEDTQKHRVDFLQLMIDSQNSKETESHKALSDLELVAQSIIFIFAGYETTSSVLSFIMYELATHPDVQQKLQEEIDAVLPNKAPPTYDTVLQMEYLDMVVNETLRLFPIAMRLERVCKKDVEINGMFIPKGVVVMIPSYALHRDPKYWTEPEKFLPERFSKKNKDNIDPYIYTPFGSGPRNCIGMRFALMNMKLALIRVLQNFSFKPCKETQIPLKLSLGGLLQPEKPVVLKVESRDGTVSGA
T3 sequence (P33261 whole entry): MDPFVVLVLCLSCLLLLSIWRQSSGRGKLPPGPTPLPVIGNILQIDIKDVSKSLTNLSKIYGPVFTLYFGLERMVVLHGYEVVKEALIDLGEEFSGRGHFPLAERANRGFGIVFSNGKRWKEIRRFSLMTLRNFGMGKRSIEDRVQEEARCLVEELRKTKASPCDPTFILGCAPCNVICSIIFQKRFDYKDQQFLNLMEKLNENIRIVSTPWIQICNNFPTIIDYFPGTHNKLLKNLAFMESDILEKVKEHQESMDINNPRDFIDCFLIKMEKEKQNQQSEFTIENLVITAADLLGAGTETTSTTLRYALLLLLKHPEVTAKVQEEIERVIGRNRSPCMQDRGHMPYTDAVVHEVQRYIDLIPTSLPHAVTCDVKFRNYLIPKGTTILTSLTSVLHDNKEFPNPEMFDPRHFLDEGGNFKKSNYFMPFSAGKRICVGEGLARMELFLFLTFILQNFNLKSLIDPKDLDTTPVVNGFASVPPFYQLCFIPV
T5 sequence (P11712 whole entry): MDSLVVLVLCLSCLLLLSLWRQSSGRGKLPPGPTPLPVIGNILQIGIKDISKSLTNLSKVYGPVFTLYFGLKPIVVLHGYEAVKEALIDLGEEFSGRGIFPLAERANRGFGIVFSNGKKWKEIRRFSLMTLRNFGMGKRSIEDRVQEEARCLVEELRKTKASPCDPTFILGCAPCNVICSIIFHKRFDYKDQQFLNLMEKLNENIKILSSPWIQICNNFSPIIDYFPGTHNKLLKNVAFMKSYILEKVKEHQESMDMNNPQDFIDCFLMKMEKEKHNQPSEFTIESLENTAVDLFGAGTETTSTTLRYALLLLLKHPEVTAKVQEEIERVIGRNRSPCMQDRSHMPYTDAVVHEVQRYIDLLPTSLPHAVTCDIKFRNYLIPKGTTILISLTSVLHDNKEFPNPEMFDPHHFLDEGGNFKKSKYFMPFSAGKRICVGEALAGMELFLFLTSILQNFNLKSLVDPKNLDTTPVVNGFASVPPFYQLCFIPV
T6 sequence (P10635 whole entry): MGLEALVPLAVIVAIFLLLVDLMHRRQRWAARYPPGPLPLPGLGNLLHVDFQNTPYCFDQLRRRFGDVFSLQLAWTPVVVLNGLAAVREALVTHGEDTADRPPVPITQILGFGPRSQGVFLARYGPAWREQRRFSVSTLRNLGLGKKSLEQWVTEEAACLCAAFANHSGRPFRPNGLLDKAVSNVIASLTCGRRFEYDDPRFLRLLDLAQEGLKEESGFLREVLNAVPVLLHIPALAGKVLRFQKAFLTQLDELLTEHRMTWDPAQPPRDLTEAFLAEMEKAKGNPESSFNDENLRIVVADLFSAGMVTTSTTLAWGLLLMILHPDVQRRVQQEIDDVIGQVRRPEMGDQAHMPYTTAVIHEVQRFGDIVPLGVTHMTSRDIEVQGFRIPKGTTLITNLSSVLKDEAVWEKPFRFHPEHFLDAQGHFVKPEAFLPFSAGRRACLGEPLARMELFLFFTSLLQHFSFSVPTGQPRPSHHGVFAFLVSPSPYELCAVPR
T7 sequence (P05181 whole entry): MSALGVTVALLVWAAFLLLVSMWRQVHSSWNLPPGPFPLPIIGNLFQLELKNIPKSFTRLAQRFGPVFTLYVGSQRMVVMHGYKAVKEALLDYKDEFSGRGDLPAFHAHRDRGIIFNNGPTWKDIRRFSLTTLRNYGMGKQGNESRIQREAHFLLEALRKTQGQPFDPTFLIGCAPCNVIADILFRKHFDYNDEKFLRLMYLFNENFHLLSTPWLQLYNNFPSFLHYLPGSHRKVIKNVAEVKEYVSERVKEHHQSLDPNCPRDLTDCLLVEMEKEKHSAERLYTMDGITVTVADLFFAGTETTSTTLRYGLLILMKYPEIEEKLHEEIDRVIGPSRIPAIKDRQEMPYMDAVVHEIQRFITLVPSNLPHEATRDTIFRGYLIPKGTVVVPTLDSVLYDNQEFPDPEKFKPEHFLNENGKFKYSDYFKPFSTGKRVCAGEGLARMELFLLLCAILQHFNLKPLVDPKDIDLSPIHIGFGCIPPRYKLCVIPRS

CC(=O)O[C@@H]1[C@@H](C)CC[C@]2(O)[C@]3(C)CC(=O)O[C@]12[C@@]1(O)C(C)=C(C(C)C)C[C@@]31O [AHC, anhydrocinnzeylanine]
metabolites of AHC from reaction with CYP1A1 (CYP1A1): not observed | metabolites of AHC from reaction with CYP2A6 (CYP2A6): not observed | metabolites of AHC from reaction with CYP2C19 (CYP2C19): not observed | metabolites of AHC from reaction with CYP2C8 (CYP2C8): not observed | metabolites of AHC from reaction with CYP2C9 (CYP2C9): not observed | metabolites of AHC from reaction with CYP2D6 (CYP2D6): not observed | metabolites of AHC from reaction with CYP2E1 (CYP2E1): not observed | metabolism of AHC by CYP3A4 (CYP3A4): major CYP responsible for the metabolism of AHC; also recorded: predominantly metabolized by CYP3A4
